“Also recorded” adds a separate entry of the source. Like-named read-outs stand apart in the source and are kept apart here.

To fix the notation:
B1: soluble human L-selectin (sCD62L) (receptor, UniProt P14151 39-332, looked up)
chain: WTYHYSEKPMNWQRARRFCRDNYTDLVAIQNKAEIEYLEKTLPFSRSYYWIGIRKIGGIWTWVGTNKSLTEEAENWGDGEPNNKKNKEDCVEIYIKRNKDAGKWNDDACHKLKAALCYTASCQPWSCSGHGECVEIINNYTCNCDVGYYGPQCQFVIQCEPLEAPELGTMDCTHPLGNFSFSSQCAFSCSEGTNLTGIEETTCGPFGNWSSPEPTCQVIQCEPLSAPDLGIMNCSHPLASFSFTSACTFICSEGTELIGKKKTICESSGIWSNPSPICQKLDKSFSMIKEGDYN
notes: also called soluble CD62L; recombinant CD62L
B2: PBJ: recombinant gp120, strain PBJ, SIV (protein)
chain: VQYVTVFYGIPAWRNATVPLFCATKNRDTWGTTQCLPDNGDYSELAINVTEAFDAWDNTVTEQAIEDVWNLFETSIKPCVKLTPLCITMRCNKSETDRWGLTGTPAPTTTQTTTTQASTTPTSPITAKVVNDSDPCIKINNCTGLEQEPMVSCKFNMTGLKRDKKREYNETWYSRDLVCEQNSNETDSKCYMNHCNTSVIQESCDKHYWDAIRFRYCAPPGYALLRCNDSNYSGFAPNCTKVVVSSCTRMMETQTSTWFGFNGTRAENRTYIYWHGRSNRTIISLNKYYNLTMRCRRPGNKTVLPVTIMSGLVFHSQPINERPKQAWCWFGGEWKKAIQEVKETLVKHPRYTGTNKTEQIKLTAPGGGDPEVTFMWTNCRGEFLYCKMNWFLNWVENIQNGSRWTSQNQKERQRRNYVPCHIRQIINTWHKVGKNVYLPPREGDLTCNSTVTSLIAEIDWINGNETNITMSAEVAELYRLELGDYKLVEITPIAFAPTSVKRYTTTGASRNKR
B3: recombinant PSGL-1 (ligand, UniProt Q14242 42-295, looked up)
chain: QATEYEYLDYDFLPETEPPEMLRNSTDTTPLTGPGTPESTTVEPAARRSTGLDAGGAVTELTTELANMGNLSTDSAAMEIQTTQPAATEAQTTQPVPTEAQTTPLAATEAQTTRLTATEAQTTPLAATEAQTTPPAATEAQTTQPTGLEAQTTAPAAMEAQTTAPAAMEAQTTPPAAMEAQTTQTTAMEAQTTAPEATEAQTTQPTATEAQTTPLAAMEALSTEPSATEALSMEPTTKRGLFIPFSVSSVTHKG
notes: also called P-selectin glycoprotein ligand-1

For one assay, the system named is HIV-1 viral release. The assay can be described thus: HIV-1 release assay, CD4+ T cells of HIV-1-infected individuals. It is filed as cell-based. How it is done:
PBMCs were obtained by leukapheresis and ficoll-hypaque centrifugation. CD4+ T cells were isolated using a cell separation system (StemCell Technologies). Cells were cultured with medium alone or with plate-bound anti-CD3 and soluble anti-CD28 antibody in the absence (DMSO) or presence of BB-94 in duplicate for 48 hours. The copy number of virion-associated HIV RNA in the above cell culture supernatants was determined using the […]-1 Test, Version 2.0 (Roche Diagnostics). The limit of detection for this system is 20 copies/ml.

Assay [1] has as its system HIV-1BaL. The assay can be described thus: HIV-1BaL infection of activated CD8-depleted PBMCs. Particulars: for reduction of HIV-1BaL infection of CD4+ T cells: 5 μM. It counts as cell-based.
Assay [2] deals with HIV-1BaL. The assay can be described thus: Cell-cell transfer TZM-BL assay. The settings on record: TZM-BL co-incubated with HIV-1BaL-infected activated CD8-depleted PBMCs.
Description: For the cell-cell transfer assay, TZM-BL and TZM-62L cells were seeded in a 96-well, flat-bottom plate at 3,000 cells/well three days before the assay. Three days post infection with HIV-1BaL, activated CD8-depleted PBMCs with and without the presence of BB-94 were added to the wells at the concentration of 80×10^3, 40×10^3, 20×10^3, 10×10^3, and 5×10^3 cells/well with the volume of each well equalized using the CD8− PBMC media. Additional BB-94 was added to both the cells infected in the presence of BB-94 and a sample of cells that only received BB-94 treatment for the cell-cell transfer assay. All conditions were prepared in triplicate. The cell mixtures were incubated at 37° C. for three days, followed by lysis and measurement of the subsequent luciferase expression as per the manufacturer's instructions.
In the next assay the test system is CD62L shedding. The assay can be described thus: CD62L shedding on activated CD8-depleted PBMCs. It counts as cell-based, human. Particulars: 100 μM concentration; supernatant CD62L by ELISA.
The target of assay [3] is T1, CD62L-Fc binding to immobilized gp120 (Homo sapiens, UniProt P14151).
T1 construct: Soluble gp120 and CD62L ELISA; Fc (IgG); purchased R&D Systems, Inc
T1 sequence (P14151 39-332 limits assumed): B1 chain
Description: Soluble gp120 and CD62L ELISA in presence of inhibitors. Particulars: 10 mM EDTA or 10 mg/ml carbohydrates. The protocol: Fifty ng of gp120 proteins were immobilized in individual wells of a 96-well plate for 1 hour at room temperature in coating buffer (10 mM Tris [pH7.5] and 2 mM CaCl2), blocked for 1 hour using blocking buffer (10 mM Tris [pH7.5], 0.1% Tween20), and washed three times with the same buffer. […] The plate was washed five times and readout was colorimetric using a TMB substrate and analyzed on a SPECTRAMAX™ Plus 384 spectrophotometer (Molecular Devices).

The target of assay [4] is T2, soluble human L-selectin (sCD62L) (Homo sapiens, UniProt P14151). Description: SPR (Biacore 3000), gp120 injected over immobilized CD62L. (In SPR one partner is held on a chip, and binding of the other changes the refractive index at the surface.)
For assay [5], the target named is B1. The assay can be described thus: SPR (Biacore 3000), CD62L ligand against CD62L.
For assay [6], the target named is T3, gp120 of strain PBJ (SIV) (SIV, UniProt P19503 23-535).
T3 sequence: B2 chain
Description: SPR (Biacore 3000), gp120 injected over immobilized CD62L.

Assay [7] has as its target T2, soluble human L-selectin (sCD62L). It counts as binding. Particulars: recombinant gp120 injected over immobilized CD62L, SPR; read-out: KD (nM), Solution KD for CD62L.

As for `CNC(=O)[C@H](Cc1ccccc1)NC(=O)[C@H](CC(C)C)[C@H](CSc1cccs1)C(=O)NO` [BB-94, Batimastat], the “inhibition of HIV-1 viral release among infected individuals” value in the assay on HIV-1 viral release (paired DMSO and BB-94 treatment, viremic and aviremic individuals) is on record as 30%-90%. Besides, the “reduction of HIV-1BaL infection of CD4+ T cells” value amounted to 60% in the assay with HIV-1BaL [1] (day 6, intracellular p24) and 80% with HIV-1BaL [1] (day 11, intracellular p24). Also, the “reduction in the viral infection of TZM-BL cells compared to the control” value with HIV-1BaL [2] is reported as 80%.

For the molecule `O=P(O)(O)C(Cl)(Cl)P(=O)(O)O` [DMDP, dichloromethylenediphosphonic acid], the “activation-induced viral release, virion-associated HIV-1 RNA in supernatant” value in the assay with HIV-1 viral release (anti-CD3 stimulated CD4+ T cells from viremic and aviremic individuals, 48 hours) is recorded as “neither DMSO nor DMDP affected the viral release”. Further, in the assay with HIV-1BaL [1] (100 μM concentration, intracellular p24), the HIV-1BaL infection result is “showed no effect”. The CD62L shedding entry with CD62L shedding is recorded as “showed no effect”.

Consider `O=C(O)CN(CCN(CC(=O)O)CC(=O)O)CC(=O)O` [EDTA], for which the “HIV-1BaL infection, intracellular viral capsid p24” value in the assay with HIV-1BaL [1] (5 mM EDTA) is listed as “significantly reduced”.

For the molecule `CC(=O)N[C@H]1C(O)O[C@H](CO)[C@@H](O)[C@@H]1O` (stereo partly drawn) [N-acetylglucosamine, N-acetyl-D-glucosamine], the “gp120-CD62L binding in the presence of inhibitor” value in [3] was “not”.

For the molecule `OC[C@H]1O[C@@H](O[C@H]2[C@H](O)[C@@H](O)C(O)O[C@@H]2CO)[C@H](O)[C@@H](O)[C@H]1O` (some centres unmarked) [lactose], in [3], the “gp120-CD62L binding in the presence of inhibitor” value was “not”.

Turning to Heparin, the “gp120-CD62L binding in the presence of inhibitor” value is on record as “competed with gp120 for receptor binding” in [3] and “inhibited gp120 binding” in assay [3] (listed as heparin).

Turning to fucoidan, the “gp120-CD62L binding in the presence of inhibitor” value in [3] is on record as “inhibited gp120 binding; also recorded: competed with gp120 for receptor binding”.

As to “gp120 of strain 11530 (Clade A) (ligand)”, the Kd (usually the concentration at which binding is half-saturated) in assay [4] came out at 35 nM.

Molecule “gp120 of strain CAP 88 (Clade C) (ligand)” gave a Kd in assay [4] of 71 nM.

“gp120 of strain R66M (Clade A/C) (ligand)”: in [4], the Kd came out at 18 nM.

As for “gp120 of strain RV254 (Clade E) (ligand)”, the Kd in assay [4] stood at 15 nM.

In turn, gp120 of strain Z185 (Clade C) (ligand) came in with a Kd in assay [4] of 58 nM.

The molecule “recombinant gp120 from strain 20SF of Clade C (ligand)” gave a Kd in assay [4] of 53 nM.

Consider sialyl-Lewis X, for which the “gp120-CD62L binding in the presence of inhibitor” value in [3] is recorded as “competed with gp120 for receptor binding”; in assay [3] (listed as Sialyl-Lewis) it was “inhibited gp120 binding”.

sialyllactose: in assay [3], the “gp120-CD62L binding in the presence of inhibitor” value is “inhibited”.

On to soluble mucin (PSM-II) (ligand), for which the Kd in [5] was 3800 nM.

With B1, the Kd in assay [6] was 19 nM.

For B2, the Kd in [7] was determined as 19 ± 2 nM.

With B3, the Kd in assay [5] was found to be 50000 nM.

Source of the values: patent US20190008828A1, “METHODS FOR INHIBITING HUMAN IMMUNODEFICIENCY VIRUS (HIV) RELEASE FROM INFECTED CELLS” (priority 2015, published 2019).
